Results taken from US5922755A, “Immunomodulator, cell adhesion inhibtor, and agent for treating, and preventing autoimmune diseases” (Toyama Chemical Co., Ltd., priority 1993, dated 1999).

Assays:
[1] = system: delayed-type hypersensitivity; assay: Delayed-type hypersensitivity potentiated in mice by cyclophosphamide pretreatment (SRBC-induced paw edema); format: in vivo, BALB/c male mice; conditions: Mus musculus, po, 120 h, read-out: Delayed-type paw edema inhibitions; for inhibition in vivo at 100 mg/kg: 100 mg/kg p.o. once a day for 5 days; for inhibition in vivo at 10 mg/kg: 10 mg/kg p.o. once a day for 5 days; for inhibition in vivo at 30 mg/kg: 30 mg/kg p.o. once a day for 5 days
Protocol: The effect of the test compounds on the delayed-type hypersensitivity. Delayed-type hypersensitivity in potentiated in mice by pretreatment with cyclophosphamide was carried out in accordance with the method of P. H. Lagrange et al., Journal of Experimental Medicine, Vol.139, pp.1529-1539(1974). In brief, BALB/c male mice (8 weeks old, 6 to 8 mice per group) were pretreated with intraperitoneal injection of 75 mg/kg cyclophosphamide. Four days after the injection, 0.2 ml SRBC (sheep red blood cells) suspension (5×10^7 cells/ml) was intravenously sensitized. Three days after the sensitization; delayed-type hypersensitive responses were induced with intradermally injection of 0.05 ml SRBC suspension (8×10^9 cells/ml) to the left hind paw. After 24 hours, the mice were killed and both hind paws were cut off at the ankle to determine the weight of the paw. The SRBC-induced edema was measured as the difference between the left and right paw weights. The inhibitory percentage in paw edema produced by the compound treatment was expressed relative to the edema from the control mice. The test compounds were suspended in 0.5% carboxymethylcellulose (CMC) solution and were administered p.o. once a day for 5 days from 2 days prior to the sensitization. 0.5 % CMC solution instead of the test compounds was administered to the control mice.

[2] = system: experimental allergic encepharomyelitis (EAE); assay: Experimental allergic encepharomyelitis (EAE); format: in vivo, Lewis female rats; conditions: Rattus norvegicus, po, 432 h, day 0 to 13, cumulative score for 18 days, rats, read-out: Inhibition of clinical score; for inhibition in vivo at 100 mg/kg: 100 mg/kg p.o. once a day; for inhibition in vivo at 30 mg/kg: 30 mg/kg p.o. once a day
Protocol: Effect of the test compounds on experimental allergic encep-haromyelitis. Experimental allergic encepharomyelitis (EAE) is a prototype for cell-mediated autoimmune diseases, and has been widely used as an animal model of multiple sclerosis. According to the method described by Deguchi et al., Brain and Nerve, Vol.42, pp.391-397(1990), EAE was induced by using Lewis female rats (5 rats per group). […] 0.5 % CMC solution instead of the test compound was administered to the control rats. The cumulative score of the symptoms for 18 days was obtained and the inhibitory percentage in the cumulative score produced by the test compound group was expressed relative to the cumulative score from the control group.

[3] = system: hemolytic plaque forming cell (PFC) response; assay: Hemolytic plaque forming cell (PFC) response, SRBC sensitization; format: in vivo, BDF1 male mice; conditions: for PFC No./spleen: mean ± S.E.
[4] = system: very late antigen-4 (VLA-4); assay: Expression of VLA-4 on lymphocytes from EAE rats (flow cytometry); format: in vivo, rat; conditions: 100 mg/kg, ten days after immunization, control 29.9
Protocol: Effect of the compounds on the expression of cell adhesion molecule (very late antigen-4:VLA-4) in EAE rats.
VLA-4 is one of the cell adhesion molecules which may be involved in the migration of lymphocytes. The effect of the compounds on the expression of VLA-4 on lymphocytes from EAE rats was examined. […] The leukocyte fraction was isolated from 5ml of the blood by density gradient centrifugation. 5×10^5of the leukocytes were suspended in 0.5 ml of phosphate buffered saline (PBS) containing 0.1 % bovine serum albumin and then reacted with 5 μl of mouse anti-rat VLA-4 antibo dy. After incubation at 4° C. for 1 hour, the cells were reacted with fluorescence isothiocyanate-conjugated sheep anti-mouse immunoglobulin for a further 30 min. The cells were washed with PBS and were analyzed on flow cytometry. The lymphocyte population was isolated to construct on based a forward and 90° light scatter. The results were expressed as a percentage of VLA-4 positive cell number to the lymphocyte number.

CD11b = assay: Enhanced expression of CD11b in HL-60 cells stimulated by PMA (flow cytometry); format: cell-based, human; conditions: 10 μg/ml; HL-60, 24 hours; mean ± S.E., 6 measurements; control 82.2 ± 4.9
Protocol: Effect of the test compounds on the enhanced expression of cell adhesion molecule CD11b in HL-60 (human promyelocytic leukemia cell line)stimulatedby phorbol myristate acetate (PMA).
CD11b is the α-chain of cell adhesion molucule Mac-1, which is expressed in the activation of monocytes. The effect of the test compounds on the expression of CD11b on monocytes, HL-60 cells was analyzed. In brief, 5×10^6 HL-60 cells were suspended in 2 ml of RPMI-1640 containing 10% fetal calf serum (FCS) in each well of a 12-well multiplate, and then PMA ([…] final concentration) and the test compound were added to themedium. After incubation at 37° C. for 24 hours in an atmosphere containig 5% CO2, the cells were collected and was hed with PBS. 3×10^3 HL-60 cells were resuspended in 300 μl PBS(containing 1% FCS) and incubated with 5 μl of phycoerythrin-conjugated mouse anti-human CD11b antibody. After 1 hour incubation at 4° C., the cells were washed with PBS. The cells were analyzed on flow cytometry, and the results were expressed as the enhanced percentage of CD11b positive cells in the treated group relative to the PMA-untreated group.

[5] = 2 × 10^6 cells sensitization, 10 mg/kg p.o. for 3 days
[6] = 2 × 10^8 cells sensitization, 10 mg/kg p.o. for 3 days
[7] = 2 × 10^6 cells sensitization, 1 mg/kg p.o. for 3 days
[8] = 2 × 10^6 cells sensitization, 100 mg/kg p.o. for 3 days
[9] = 2 × 10^8 cells sensitization, 1 mg/kg p.o. for 3 days
[10] = 2 × 10^8 cells sensitization, 100 mg/kg p.o. for 3 days

SMILES: CC(C)(S)[C@@H](N)C(=O)O [D-PENICILLAMINE, D-penicillamine, reference compound]
- inhibition in vivo at 100 mg/kg [1]: -3%
- inhibition in vivo at 100 mg/kg [2]: -10%

SMILES: C[C@]12C=CC(=O)C=C1CC[C@@H]1[C@@H]2[C@@H](O)C[C@@]2(C)[C@H]1CC[C@]2(O)C(=O)CO [PREDNISOLONE, prednisolone, reference compound]
- PFC number, percentage of control group [3, 5]: 81 PERCENTAGE
- PFC No./spleen [3, 5]: 3.97 ± 0.78 ×10^3
- PFC number, percentage of control group [3, 6]: 7 PERCENTAGE
- PFC No./spleen [3, 6]: 17 ± 3 ×10^3
- inhibition in vivo at 10 mg/kg [1]: 44%

SMILES: O=C(O)c1cc(/N=N/c2ccc(S(=O)(=O)Nc3ccccn3)cc2)ccc1O [SULFASALAZINE, Sulfasalazine, reference compound]
- inhibition in vivo at 100 mg/kg [1]: 5%
- inhibition in vivo at 300 mg/kg ([2]; 300 mg/kg p.o. once a day): 1%

SMILES: CS(=O)(=O)Nc1cc2occ(NC=O)c(=O)c2cc1Oc1ccccc1 [compound No. 1, 3-formylamino-7-methylsulfonylamino-6-phenoxy-4H-1-benzopyran-4-one]
- Percentage of VLA-4 positive cell (mean) [4]: 12.0 PERCENTAGE
- PFC number, percentage of control group [3, 7]: 145 PERCENTAGE
- PFC No./spleen [3, 7]: 7.06 ± 1.17 ×10^3
- PFC number, percentage of control group [3, 5]: 146 PERCENTAGE
- PFC No./spleen [3, 5]: 7.13 ± 0.52 ×10^3
- PFC number, percentage of control group [3, 8]: 111 PERCENTAGE
- PFC No./spleen [3, 8]: 5.40 ± 0.49 ×10^3
- PFC number, percentage of control group [3, 9]: 963 PERCENTAGE
- PFC No./spleen [3, 9]: 231 ± 18 ×10^3
- PFC number, percentage of control group [3, 6]: 92 PERCENTAGE
- PFC No./spleen [3, 6]: 221 ± 17 ×10^3
- PFC number, percentage of control group [3, 10]: 54 PERCENTAGE
- PFC No./spleen [3, 10]: 129 ± 20 ×10^3
- inhibition in vivo at 10 mg/kg [1]: 12%
- inhibition in vivo at 30 mg/kg [1]: 27%
- inhibition in vivo at 100 mg/kg [1]: 39%
- inhibition in vivo at 1 mg/kg ([2]; 1 mg/kg p.o. once a day): 21%
- inhibition in vivo at 100 mg/kg [2]: 67%
- CD11b increased rate of expression (CD11b): 49.9 ± 1.8%

SMILES: CS(=O)(=O)Nc1cc2occc(=O)c2cc1Oc1ccccc1 [compound No. 2, 7-methylsulfonylamino-6-phenoxy-4H-1-benzopyran-4-one]
- inhibition in vivo at 100 mg/kg [1]: 17%

SMILES: CS(=O)(=O)Nc1cc2occc(=O)c2cc1Oc1ccc(F)cc1F [compound No. 3, 6-(2,4-difluorophenoxy)-7-methylsulfonylamino-4H-1-benzopyran-4-one]
- inhibition in vivo at 30 mg/kg [1]: 48%
- inhibition in vivo at 30 mg/kg [2]: 86%

SMILES: CS(=O)(=O)Nc1cc2occ(C(N)=O)c(=O)c2cc1Oc1ccccc1 [compound No. 4, 3-carbamoyl-7-methylsulfonylamino-6-phenoxy-4H-1-benzopyran-4-one]
- inhibition in vivo at 100 mg/kg [1]: 41%
- inhibition in vivo at 30 mg/kg [2]: 50%

SMILES: Cc1oc2cc(NS(C)(=O)=O)c(Oc3ccccc3)cc2c(=O)c1C(N)=O [compound No. 5, 3-carbamoyl-2-methyl-7-methylsulfonylamino-6-phenoxy-4H-1-benzopyran-4-one]
- inhibition in vivo at 100 mg/kg [1]: 16%

SMILES: CN(C=O)c1coc2cc(NS(C)(=O)=O)c(Oc3ccccc3)cc2c1=O [compound No. 6, 3-(N-formyl-N-methyl)amino-7-methylsulfonylamino-6-phenoxy-4H-1-benzopyran-4-one]
- inhibition in vivo at 100 mg/kg [1]: 17%
- inhibition in vivo at 30 mg/kg [2]: 66%

SMILES: CS(=O)(=O)Nc1cc2occ(C(=O)O)c(=O)c2cc1Oc1ccccc1 [compound No. 7, 3-carboxy-7-methylsulfonylamino-6-phenoxy-4H-1-benzopyran-4-one]
- inhibition in vivo at 100 mg/kg [1]: 16%
- inhibition in vivo at 30 mg/kg [2]: 50%

SMILES: CSc1coc2cc(NS(C)(=O)=O)c(Oc3ccccc3)cc2c1=O [compound No. 8, 3-methylthio-7-methylsulfonyl amino-6-phenoxy-4H-1-benzopyran-4-one]
- inhibition in vivo at 100 mg/kg [1]: 21%
- inhibition in vivo at 30 mg/kg [2]: 17%

SMILES: CS(=O)(=O)Nc1cc2occ(NC=O)c(=O)c2cc1Nc1ccc(F)cc1F [compound No. 9, 6-(2,4-difluorophenylamino)-3-formylamino-7-methylsulfonylamino-4H-1-benzopyran-4-one]
- inhibition in vivo at 100 mg/kg [1]: 28%
- inhibition in vivo at 30 mg/kg [2]: 50%

SMILES: CS(=O)(=O)Nc1cc2occ(C(N)=O)c(=O)c2cc1Nc1ccc(F)cc1F [compound No. 10, 3-carbamoyl-6-(2,4-difluorophenylamino)-7-methylsulfonylamino-4H-1-benzopyran-4-one]
- inhibition in vivo at 100 mg/kg [1]: 20%
- inhibition in vivo at 30 mg/kg [2]: 42%

SMILES: Cc1cc(=O)c2cc(Oc3ccccc3)c(NS(C)(=O)=O)cc2o1 [compound No. 11, 2-methyl-7-methyl sulfonylamino-6-phenoxy-4H-1-benzopyran-4-one]
- inhibition in vivo at 30 mg/kg [2]: 52%

SMILES: CS(=O)(=O)Nc1cc2occ(NC=O)c(=O)c2cc1Nc1ccccc1F [compound No. 12, 6-(2-fluorophenylamino)-3-formylamino-7-methylsulfonylamino-4H-1-benzopyran-4-one]
- inhibition in vivo at 30 mg/kg [2]: 67%
